The assay has as its target beta-catenin-B-cell lymphoma 9 protein complex (Homo sapiens, UniProt P35222+O00512). The assay can be described thus: Alphascreen Assay: Alphascreen Assays to Determine the Apparent Kd Values for Wild-Type and Mutant β-Catenin/BCL9 InteractionsThe experimental detail using AlphaScreen to determine the apparent Kd values for β-catenin/BCL9 and β-catenine/E-cadherin PPIs has been described previously (Zhang et al. (2015) Anal. Biochem. 469: 43-53). The concentrations of mutant β-catenin proteins used in the assays were the same as that of wild-type β-catenin. It is filed as protein-complex assay. Background: Alpha assays give light when donor and acceptor beads are brought close together.

Sequence of beta-catenin-B-cell lymphoma 9 protein complex (O00512 whole entry, stated change not applied): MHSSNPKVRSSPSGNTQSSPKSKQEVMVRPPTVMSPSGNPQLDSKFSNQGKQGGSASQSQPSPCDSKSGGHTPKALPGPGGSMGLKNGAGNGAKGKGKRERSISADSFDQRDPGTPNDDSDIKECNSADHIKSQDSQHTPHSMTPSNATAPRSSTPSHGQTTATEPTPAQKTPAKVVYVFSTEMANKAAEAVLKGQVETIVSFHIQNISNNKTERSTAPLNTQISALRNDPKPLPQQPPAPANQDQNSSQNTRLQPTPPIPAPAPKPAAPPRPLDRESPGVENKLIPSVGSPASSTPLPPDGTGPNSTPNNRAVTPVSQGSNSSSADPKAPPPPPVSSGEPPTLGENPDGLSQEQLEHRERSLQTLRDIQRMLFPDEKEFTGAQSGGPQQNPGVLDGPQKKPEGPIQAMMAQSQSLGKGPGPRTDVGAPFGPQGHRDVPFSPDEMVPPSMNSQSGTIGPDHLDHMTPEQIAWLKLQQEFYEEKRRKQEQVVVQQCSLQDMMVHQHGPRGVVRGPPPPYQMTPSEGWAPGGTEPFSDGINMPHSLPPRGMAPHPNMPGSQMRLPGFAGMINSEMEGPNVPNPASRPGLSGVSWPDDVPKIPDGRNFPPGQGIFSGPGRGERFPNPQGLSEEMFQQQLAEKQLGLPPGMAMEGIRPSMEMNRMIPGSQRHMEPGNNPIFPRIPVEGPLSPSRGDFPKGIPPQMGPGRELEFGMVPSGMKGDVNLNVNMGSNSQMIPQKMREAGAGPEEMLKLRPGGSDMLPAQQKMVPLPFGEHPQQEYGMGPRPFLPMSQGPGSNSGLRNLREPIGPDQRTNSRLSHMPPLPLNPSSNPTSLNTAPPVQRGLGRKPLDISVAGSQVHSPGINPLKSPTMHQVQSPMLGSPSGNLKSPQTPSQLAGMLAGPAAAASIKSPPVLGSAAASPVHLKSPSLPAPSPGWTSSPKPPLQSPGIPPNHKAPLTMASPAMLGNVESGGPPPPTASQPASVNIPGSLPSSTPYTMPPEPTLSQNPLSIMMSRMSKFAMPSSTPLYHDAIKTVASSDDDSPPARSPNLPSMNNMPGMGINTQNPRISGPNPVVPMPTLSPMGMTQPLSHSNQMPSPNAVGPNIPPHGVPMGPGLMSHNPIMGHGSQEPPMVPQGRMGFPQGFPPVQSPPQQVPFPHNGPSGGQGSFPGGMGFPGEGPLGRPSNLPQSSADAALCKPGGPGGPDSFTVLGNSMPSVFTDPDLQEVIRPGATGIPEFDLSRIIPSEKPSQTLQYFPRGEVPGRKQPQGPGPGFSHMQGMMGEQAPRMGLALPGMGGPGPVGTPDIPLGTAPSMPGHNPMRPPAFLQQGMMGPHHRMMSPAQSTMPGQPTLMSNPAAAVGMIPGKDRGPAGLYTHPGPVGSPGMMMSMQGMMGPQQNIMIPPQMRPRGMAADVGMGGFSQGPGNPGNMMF
Sequence of beta-catenin-B-cell lymphoma 9 protein complex (P35222 2-781 limits assumed, stated change not applied): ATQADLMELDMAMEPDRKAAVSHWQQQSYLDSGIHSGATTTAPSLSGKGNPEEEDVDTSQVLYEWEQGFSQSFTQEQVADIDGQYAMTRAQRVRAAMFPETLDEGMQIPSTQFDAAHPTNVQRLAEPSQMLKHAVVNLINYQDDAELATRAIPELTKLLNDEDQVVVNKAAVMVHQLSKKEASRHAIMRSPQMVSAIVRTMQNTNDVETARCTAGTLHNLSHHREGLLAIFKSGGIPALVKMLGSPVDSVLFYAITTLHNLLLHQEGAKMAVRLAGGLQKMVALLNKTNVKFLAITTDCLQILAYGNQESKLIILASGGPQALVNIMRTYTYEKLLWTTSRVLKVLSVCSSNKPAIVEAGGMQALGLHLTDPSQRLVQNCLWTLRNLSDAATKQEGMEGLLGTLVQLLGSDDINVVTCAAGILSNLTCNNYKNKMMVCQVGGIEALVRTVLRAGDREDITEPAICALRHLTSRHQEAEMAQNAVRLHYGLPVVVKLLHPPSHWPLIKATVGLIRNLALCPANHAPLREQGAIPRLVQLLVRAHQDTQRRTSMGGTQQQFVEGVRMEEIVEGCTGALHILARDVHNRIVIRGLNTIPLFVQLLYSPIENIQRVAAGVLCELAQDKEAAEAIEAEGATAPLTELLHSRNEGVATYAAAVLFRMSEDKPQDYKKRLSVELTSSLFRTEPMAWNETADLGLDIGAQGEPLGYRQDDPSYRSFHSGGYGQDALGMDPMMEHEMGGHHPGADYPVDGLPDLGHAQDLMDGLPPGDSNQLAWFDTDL

With `CC(C)c1cc2c(c(O)c1O)[C@@]1(C(=O)O)CCCC(C)(C)[C@@H]1CC2`, the Ki was 5.3 µM.

Values taken from ChEMBL document CHEMBL5729519, “Methods and composition of 4-substituted benzoylpiperazine-1-substituted carbonyls as beta-catenin/B-cell lymphoma 9 inhibitors” (2023).
